Measurements as given in paper PMC8206134, “Structural basis of mechano-chemical coupling by the mitotic kinesin KIF14” (Nature Communications, 2021).

Legend:
KIF14 K735 (MT-K735) [1] = molecular target: T1, KIF14 K735 (MT-K735) (Mus musculus, UniProt L0N7N1); test: cryo-EM structure; assay type: binding; conditions: microtubule-bound; 4 mM ADP plus 2 mM AlCl3 and 10 mM KF; AlFx and Mg2+ densities near noise; open* conformation
T1 construct: core motor domain N391-L735, no neck-linker; GST tag cleaved (PreScission), E. coli BL21(DE3) pLysS; monomer; with Tubulin alpha chain (Sus scrofa, porcine brain); Tubulin beta chain (Sus scrofa, porcine brain)
T1 sequence (L0N7N1 391-735): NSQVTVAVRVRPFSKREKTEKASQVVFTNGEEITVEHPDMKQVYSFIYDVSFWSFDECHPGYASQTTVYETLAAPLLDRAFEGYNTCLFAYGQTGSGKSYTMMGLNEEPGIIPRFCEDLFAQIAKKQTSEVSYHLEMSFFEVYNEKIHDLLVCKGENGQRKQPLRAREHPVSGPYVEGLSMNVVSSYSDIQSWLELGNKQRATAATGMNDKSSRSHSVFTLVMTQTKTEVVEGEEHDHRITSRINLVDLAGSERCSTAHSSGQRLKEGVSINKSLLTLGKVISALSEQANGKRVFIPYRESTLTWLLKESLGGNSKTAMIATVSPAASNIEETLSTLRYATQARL

KIF14 K755 (MT-K755) = molecular target: T2, KIF14 K755 (MT-K755) (Mus musculus, UniProt L0N7N1); test: malachite green phosphate assay; assay type: biochemical; conditions: 1 mM ATP, 2 uM paclitaxel-stabilised microtubules, 50 nM KIF14, 1 mM MgCl2, PIPES pH 6.8
T2 construct: motor domain, neck-linker and part of first CC1 heptad N391-K755; GST tag cleaved (PreScission), E. coli BL21(DE3) pLysS; with Tubulin alpha chain (Sus scrofa, porcine brain); Tubulin beta chain (Sus scrofa, porcine brain)
T2 sequence (L0N7N1 391-755): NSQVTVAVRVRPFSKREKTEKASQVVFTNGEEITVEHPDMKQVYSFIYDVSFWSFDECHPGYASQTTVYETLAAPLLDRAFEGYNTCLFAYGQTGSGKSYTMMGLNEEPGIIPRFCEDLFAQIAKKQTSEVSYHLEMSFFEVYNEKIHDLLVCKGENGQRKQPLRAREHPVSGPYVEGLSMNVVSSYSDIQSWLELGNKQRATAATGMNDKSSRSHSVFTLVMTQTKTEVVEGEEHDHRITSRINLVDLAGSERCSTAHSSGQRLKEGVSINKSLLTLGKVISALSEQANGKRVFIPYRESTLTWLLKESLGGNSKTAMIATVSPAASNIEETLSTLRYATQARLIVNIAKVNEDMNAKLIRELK
Excerpt: (§1) malachite green phosphate assay on KIF14 […] (MT-[…]) | Microtubule-stimulated ATPase rate of […], […], […], and […] constructs

KIF14 K748 (MT-K748) = molecular target: T3, KIF14 K748 (MT-K748) (Mus musculus, UniProt L0N7N1); test: malachite green phosphate assay; assay type: biochemical; conditions: 1 mM ATP, 2 uM paclitaxel-stabilised microtubules, 50 nM KIF14, 1 mM MgCl2, PIPES pH 6.8
T3 construct: motor domain plus 13 neck-linker residues N391-A748; GST tag cleaved (PreScission), E. coli BL21(DE3) pLysS; monomer; with Tubulin alpha chain (Sus scrofa, porcine brain); Tubulin beta chain (Sus scrofa, porcine brain)
T3 sequence (L0N7N1 391-748): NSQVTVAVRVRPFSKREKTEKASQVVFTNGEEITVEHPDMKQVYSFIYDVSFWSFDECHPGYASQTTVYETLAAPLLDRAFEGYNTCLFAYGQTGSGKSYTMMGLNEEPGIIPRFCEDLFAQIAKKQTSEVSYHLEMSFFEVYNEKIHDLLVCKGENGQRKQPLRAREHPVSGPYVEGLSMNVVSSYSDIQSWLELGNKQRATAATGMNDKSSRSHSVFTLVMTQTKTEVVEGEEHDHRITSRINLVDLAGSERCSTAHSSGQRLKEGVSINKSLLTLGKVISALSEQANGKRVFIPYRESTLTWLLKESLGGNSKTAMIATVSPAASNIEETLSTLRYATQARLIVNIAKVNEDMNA
Excerpt: as §1

KIF14 K743 (MT-K743) = molecular target: T4, KIF14 K743 (MT-K743) (Mus musculus, UniProt L0N7N1); test: malachite green phosphate assay; assay type: biochemical; conditions: 1 mM ATP, 2 uM paclitaxel-stabilised microtubules, 50 nM KIF14, 1 mM MgCl2, PIPES pH 6.8
T4 construct: motor domain plus 8 neck-linker residues N391-N743; GST tag cleaved (PreScission), E. coli BL21(DE3) pLysS; monomer; with Tubulin alpha chain (Sus scrofa, porcine brain); Tubulin beta chain (Sus scrofa, porcine brain)
T4 sequence (L0N7N1 391-743): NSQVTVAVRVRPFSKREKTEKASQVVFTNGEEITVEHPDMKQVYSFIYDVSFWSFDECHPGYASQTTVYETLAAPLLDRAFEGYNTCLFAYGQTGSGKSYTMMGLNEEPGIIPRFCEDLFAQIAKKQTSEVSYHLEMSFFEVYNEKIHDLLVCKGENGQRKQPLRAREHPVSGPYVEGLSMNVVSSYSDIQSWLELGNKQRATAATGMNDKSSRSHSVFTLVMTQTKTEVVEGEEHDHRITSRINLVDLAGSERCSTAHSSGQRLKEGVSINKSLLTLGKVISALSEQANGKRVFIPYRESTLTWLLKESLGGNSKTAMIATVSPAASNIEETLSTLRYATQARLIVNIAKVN
Excerpt: as §1

KIF14 K735 (MT-K735) [2] = molecular target: T1, KIF14 K735 (MT-K735); test: malachite green phosphate assay; assay type: biochemical; conditions: 1 mM ATP, 2 uM paclitaxel-stabilised microtubules, 50 nM KIF14, 1 mM MgCl2, PIPES pH 6.8
Excerpt: as §1

[3] = molecular target: the molecule itself; test: SEC; size-exclusion chromatography of the KIF14 constructs alone in solution, elution compared with protein standards (66, 44 and 25 kDa)

Nc1ncnc2c1ncn2[C@@H]1O[C@H](COP(=O)(O)OP(=O)(O)O)[C@@H](O)[C@H]1O [ADP]
cryo-EM structure (KIF14 K735 (MT-K735) [1]): The MT-K735-AAF and MT-K743-AAF maps contain strong densities associated with ADP

Nc1ncnc2c1ncn2[C@@H]1O[C@H](COP(=O)(O)OP(=O)(O)OP(=O)(O)O)[C@@H](O)[C@H]1O [ATP]
Microtubule-stimulated ATPase rate (KIF14 K755 (MT-K755)): Microtubule-stimulated ATPase rate of K735, K743, K748, and K755 constructs
Microtubule-stimulated ATPase rate (KIF14 K748 (MT-K748)): Microtubule-stimulated ATPase rate of K735, K743, K748, and K755 constructs
Microtubule-stimulated ATPase rate (KIF14 K743 (MT-K743)): Microtubule-stimulated ATPase rate of K735, K743, K748, and K755 constructs
Microtubule-stimulated ATPase rate (KIF14 K735 (MT-K735) [2]): Microtubule-stimulated ATPase rate of K735, K743, K748, and K755 constructs

B1: KIF14 construct K772 (residues Asn-391 to Asp-772) (domain or fragment, mouse, UniProt L0N7N1 391-772, looked up)
chain: NSQVTVAVRVRPFSKREKTEKASQVVFTNGEEITVEHPDMKQVYSFIYDVSFWSFDECHPGYASQTTVYETLAAPLLDRAFEGYNTCLFAYGQTGSGKSYTMMGLNEEPGIIPRFCEDLFAQIAKKQTSEVSYHLEMSFFEVYNEKIHDLLVCKGENGQRKQPLRAREHPVSGPYVEGLSMNVVSSYSDIQSWLELGNKQRATAATGMNDKSSRSHSVFTLVMTQTKTEVVEGEEHDHRITSRINLVDLAGSERCSTAHSSGQRLKEGVSINKSLLTLGKVISALSEQANGKRVFIPYRESTLTWLLKESLGGNSKTAMIATVSPAASNIEETLSTLRYATQARLIVNIAKVNEDMNAKLIRELKAEIEKLKAAQRSNRNID
notes: KIF14, mouse (Mus musculus), full length 1674 amino acids; Dimer in solution by size-exclusion chromatography; source: E. coli BL21 (DE3) pLysS, purified (glutathione resin, cleaved on beads with PreScission protease)
stoichiometry N [3]: 2
